Test results reported in PMC6058497 (Drug Delivery, 2018).
≈ marks a conversion by molar mass, not a printed value. Where two headings read alike, the source gives them in different places.

Tests used:
[1] = test system: U-87 MG cells; assay: MTT cytotoxicity test, U-87 MG; format: cell-based, human
Protocol: (§1) Cancer cell lines U-87 MG (glioblastoma) and MCF-7 (breast cancer) were obtained from the ATCC (ATCC number HTB-14 and HTB-22, respectively). Immortalized human fibroblasts used as normal cells were kindly provided by Alexander G. Shilov (Institute of Cytology and Genetics SB RAS). The cells were maintained in DMEM plus 10% FBS, under a temperature of 37 °C, atmosphere of 5% of CO2 and 90% humidity.
(§2) MTT test was performed according to a standard procedure (Mosmann, [1983]). Cells were seeded in a 96-well plate at a density of 5 × 10^3 cells/well and after 24 h of adherence, the cells were treated with different concentration of test compounds and incubated for 48 h at 37 °C in an atmosphere of 5% CO2 in air. Untreated cells were used as negative control and doxorubicin was used as a positive control. After the incubation period, 10 μL MTT solution (3 mg/mL of PBS) was added to each well followed by incubation for 3 h under the condition mentioned above. Then, the MTT-containing medium was removed and the formazan crystals were dissolved with 100 μL of isopropanol. Absorbance was measured at 630 and 492 nm using a microplate reader (Thermo Scientific, Waltham, MA). The cell viability percentage was calculated using the following formula: Viability (%)=OD (treated cells)/OD (untreated cells) × 100, where OD was an optical density of solution.

[2] = Molecular weight distribution by gel permeation chromatography; format: physicochemical; settings: dissolved in water
Protocol: The molecular weight distribution (MWD) of the samples was investigated by gel permeation chromatography (GPC) on the Agilent 1200 chromatograph with column PL aquel-OH 40 (Santa Clara, CA), 300 × 7.5 mm column at 30 °C with refractometric detector. The solvent used was 0.02% NaN3 aqueous solution and flow rate was 1 mL/min. The calibration was performed by standard dextrans with molecular weights of 1, 5, 12, 25, 80, 150, 270, and 410 kDa. Agilent GPC data analysis program was used to process the results (Santa Clara, CA).

[3] = test system: immortalized human fibroblasts; assay: MTT cytotoxicity test, immortalized human fibroblasts; format: cell-based; settings: for Viability: 48 h
Protocol: as §1, §2

[4] = test system: MCF-7 cells; assay: MTT cytotoxicity test, MCF-7; format: cell-based, human; settings: for Viability: 48 h
Protocol: as §1, §2

[5] = Solubility determination in distilled water (HPLC); format: physicochemical; settings: +37 °C
Protocol: The amount of Cur was determined by using a high performance liquid chromatography (HPLC) system (Agilent 1200, Santa Clara, CA) with column Zorbax Eclipse XDB-C18, 4.6 × 50 mm at +30 °C and diode-array detector. Acetonitrile–acetate buffer (55:45) was used as eluent (pH = 3.4) with flow rate of 1.0 mL/min, and detection wavelength was 430 nm. […] At last, sample solutions were filtered and analyzed by HPLC.

[6] = Oral pharmacokinetic (bioavailability) study in rats; format: in vivo; settings: male, Sprague Dawley; rat plasma, single oral dose 150 mg/kg Cur
Protocol: The pharmacokinetic study was carried out in male Sprague Dawley rats (10 weeks of age, 250–260 g body weight, provided by the Zhejiang Academy of Medical Science, Hangzhou, China). All animal (used in this experiment) handling procedures were performed in strict compliance with the PR China legislation for the use and care of laboratory animals and were approved by the University Committee for Animal Experiments. The animals were fasted overnight (12 h) and had free access to drinking water throughout the experimental period. […] To evaluate the concentration of Cur in plasma, blood was collected into heparinized Eppendroff tubes at different time points: 0.083, 0.25, 0.5, 1, 2, 4, 6, 8, 12, and 24 h post-dosing and centrifuged (Sigma Laboratory Centrifuge, Model 3K-30, Osterode am Harz, Germany) at 9391 × g for 5 min to separate the plasma. The plasma samples were stored at –80 °C until further analysis.
A 100 μL aliquot of plasma was transferred to a clean microcentrifuge tube and next treated with 100 μL of a solution containing 1000 U of β-glucuronidase in 0.1 M phosphate buffer (pH 6.8). The resulting mixture was then thoroughly vortexed and incubated at 37 °C for 1 h to hydrolyze the conjugated Cur. After incubation, 0.1 mL acetonitrile was added to 0.1 mL of plasma and centrifuged (Sigma Laboratory Centrifuge, Model3K-30, Osterode am Harz, Germany) at 9391 × g for 15 min, and then the supernatant was subjected to be analyzed by HPLC.
Standard pharmacokinetic parameters for free Cur and Cur SDs were calculated by linear trapezoidal method using the PKSolver, a freely available menu-driven add-in program for Microsoft Excel. The results were presented as mean ± standard error of the mean (SEM). One-way analysis of variance (ANOVA) was followed by Dunnett’s test for multiple comparisons statistical evaluation. p Values <.05 were considered significant.

[7] = set-up: method as in Priyadarsini, 2014; settings: acidic and neutral pH; ref Priyadarsini, 2014; cited from earlier work
[8] = cited from earlier work

CC1(C)[C@@H](O[C@H]2O[C@H](C(=O)[O-])[C@@H](O)[C@H](O)[C@H]2O[C@@H]2O[C@H](C(=O)O)[C@@H](O)[C@H](O)[C@H]2O)CC[C@]2(C)[C@H]3C(=O)C=C4[C@@H]5C[C@@](C)(C(=O)[O-])CC[C@]5(C)CC[C@@]4(C)[C@]3(C)CC[C@@H]12.[Na+].[Na+] [Na2GA, disodium glycyrrhizin]
Viability ([1]; 25 μM, 48 h): 96.6 ± 2.39% | Viability ([1]; 50 μM, 48 h): 95.9 ± 1.16% | Viability ([1]; 100 μM, 48 h): 92.2 ± 2.75% | Viability ([1]; 200 μM, 48 h): 92.2 ± 2.63% | Viability ([1]; 400 μM, 48 h): 92.9 ± 1.65% | Cytotoxicity ([1]; 25–400 μM): no cytotoxicity | Molecular weight of micelles formed in water [2]: 85–90 kDa | Viability ([3]; 25 μM): 96.2 ± 2.78% | Viability ([3]; 50 μM): 97.3 ± 1.73% | Viability ([3]; 100 μM): 98.8 ± 4.18% | Viability ([3]; 200 μM): 96.0 ± 1.66% | Viability ([3]; 400 μM): 98.3 ± 0.90% | Cytotoxicity ([3]; 25–400 μM): no cytotoxicity | Viability ([4]; MCF-7, 25 μM): 98.2 ± 2.13% | Viability ([4]; MCF-7, 50 μM): 97.8 ± 3.33% | Viability ([4]; MCF-7, 100 μM): 98.2 ± 0.41% | Viability ([4]; MCF-7, 200 μM): 98.7 ± 1.59% | Viability ([4]; MCF-7, 400 μM): 99.6 ± 1.34% | Cytotoxicity ([4]; MCF-7, 25–400 μM): no cytotoxicity

COc1cc(/C=C/C(=O)CC(=O)/C=C/c2ccc(O)c(OC)c2)ccc1O [Free Cur, Curcumin]
solubility at 12 h [5]: 1.73 µg/mL (≈ 4.7 µM) | Mean cell survival ([1]; Cur concentration range 25–100 μM, 48 h): above 80% | AUC(0-inf) [6]: 14300 ± 720 ng·h/mL | AUC(0-t) [6]: 12100 ± 360 ng·h/mL | Cmax [6]: 1480 ± 30 ng/mL | Tmax [6]: 0.25 h | half-life [6]: 5.07 ± 0.41 h | Solubility in water [7]: practically insoluble

CC1(C)[C@@H](O[C@H]2O[C@H](C(=O)O)[C@@H](O)[C@H](O)[C@H]2O[C@@H]2O[C@H](C(=O)O)[C@@H](O)[C@H](O)[C@H]2O)CC[C@]2(C)[C@H]3C(=O)C=C4[C@@H]5C[C@@](C)(C(=O)O)CC[C@]5(C)CC[C@@]4(C)[C@]3(C)CC[C@@H]12 [GA, Glycyrrhizic acid]
Molecular weight of micelles formed in water ([8]; dissolved in water, ref Dushkin & Tolstikova, 2012): 66 kDa | Critical micelle concentration ([8]; ref Kornievskaya et al., 2007, Polyakov, 2011): ~1 mM
